Laboratory results as given in US10040813B2, “Compounds as positive allosteric modulators for erythropoietin and erythropoietin receptor to treat erythropoietin deficiency diseases” (ACAHEALTH PHARMA & BIOTECH CO., LTD., priority 2015, dated 2018).
“Also recorded” adds a separate entry of the source.

System: cisplatin-induced nephropathy in mice
Test: Cisplatin-induced nephropathy mouse model (anaemia and renal function)
Type: in vivo
Method: Forty six-to-seven-week-old C57Bl/6J male mice were i.p. injected with three doses of cisplatin (Sigma-Aldrich), following the scheme of 7, 6, and 6 mg·kg-1 body weight, at 4 to 5 day intervals, and the normal group (n=4) was injected with saline (FIG. 1 scheme). On day 12, the collected serum samples were assayed for the urea nitrogen content (BUN). Mice with BUN values greater than 80 mg·dL-1 were chosen for the experiment. An average seventy percent of injected mice were successful induced renal dysfunction, and the ineffective mice were excluded from the EH202 treating experiments. The mice were subsequently divided randomly into 4 cohorts comprising the control (Ctrl, n=6) and three EH202-treated groups (n=5 to 6 for each group) for an additional 2 weeks. Blood samples from all the mice were collected every 5 days. The RBC numbers were determined from the complete blood cell count using a Sysmex Kx-21 haematology analyser (Sysmex America), and the serum BUN and creatinine levels were determined using a commercial kit (Randox Laboratories Ltd. United Kingdom). All results are expressed as the mean±SEM. The statistical analysis was performed using Student's t-test. One-way ANOVA was used to examine the differences across the animal experimental groups. The posthoc differences between the means of the experimental groups were determined via Tukey's test. P<0.05 was considered significant.

Compound: OC[C@H]1OC(Oc2c(/C=C/c3ccc(F)cc3)ccc3ccccc23)[C@H](O)[C@@H](O)[C@@H]1O (stereo partly drawn) [EH202, (Naphthanol-4′fluoro-stilbenzene)-1-O-β-D-glycoside]
- BUN levels (10, 30 and 90 mg·kg-1 treatment groups, day 29, FIG. 2C): accelerates the recovery from renal dysfunction; also recorded: significantly recovered
- recovery of anaemia (HGB level, RBC numbers) (30 and 90 mg·kg-1, FIGS. 2D and 2E): increasing recovery of anaemia
- recovery of renal dysfunction (creatinine level in the peripheral blood) (30 and 90 mg·kg-1 for 10 days, day 24, FIG. 2B): accelerates the recovery from renal dysfunction; also recorded: almost complete recovery of renal dysfunction
- recovery from anemia, hemoglobin (HGB) level in the peripheral blood (day 24, FIG. 2D): accelerates the recovery from anemia
- recovery from anemia, RBC numbers in the peripheral blood (day 29, FIG. 2E): accelerates the recovery from anemia
